Reference: patent US10875898B2, “Bioactive protein, use thereof and method for its production” (Koppert B.V., priority 2014, dated 2020)

How the values were obtained:
tomato plants = experiment: tomato plant growth, watering and spraying; format: in vivo; conditions: 0.01 μM, once per week for one month; vs T. harzianum T22, GERMON E and untreated control
From the text: FIG. 10: Effect of HYTLO1 on tomato plant growth as compared to treatment with T. harzianum strain T22 or the Commercial product GERMON E (G-E) base on the auxin 1-naphthaleneacetic acid, commercialized by L. Gobbi, Italy. (A) Growth increase of root and stem of HYTLO1 vs. water control, GERMON E or T22, 10 days after treatment. (B) Increase of root development (HYTLO1 treatment on the left, untreated control on the right), (C) Effect of HYTLO1 on plant size compared to T22. (D) Effect of HYTLO1 on root development compared to water control, T22, GERMON E (also in combination with HYTLO1). HYTLO1 was applied at final concentration in the soil at 10^−8 M.
FIG. 11: Effect of purified HYTLO1 on tomato plants, applied by drench on the roots or by spraying on the leaves. For the irrigation, 50 ml of a solution containing 0.072 μg/ml of HYTLO1 (0.01 μM) were applied for each pot containing 1 litre of soil and 2 tomato plants, for a total of 4 applications. For foliar application, 20 ml of a solution containing 0.072 μg/ml (0.01 μM) of HYTLO1 were sprayed for each pot containing 2 tomato plants for a total of 4 applications. […]

cucumber = experiment: combined application of HYTLO1 and Trichoderma spp. strains on cucumber growth promotion; format: in vivo; conditions: 20 days after seed coating
Protocol: The results are shown in Table 2 and expressed in terms of increased stem and root length or fresh/dry weight. Cucumber seeds were coated with the purified molecule solutions and/or spore suspension, transferred into Petri dishes and left to germinate on humid filter paper. Germinated seedlings were transplanted into pots containing sterilised soil. Other two treatments with the purified molecules were performed at 7 days interval, by drenching the soil with the solutions at the final concentrations of 10^−8M for HYTLO1, and 1 ml of a 10^7 spore/ml suspension per 10 ml soil. In two-compounds application, half dose of each molecule was used. Each treatments was performer on at least 8 plants, and results were collected 20 days after seed coating. This experiment confirmed the beneficial effect exerted by HYTLO1 alone and in combination with Trichoderma species on plant growth. […] In particular, and only as an example, combined treatment with T. harzianum T22+HYTLO1, and T. harzianum strain TH1+HYTLO1 determined a significant increase in plant growth promotion effect of up to 33% more compared to controls (synergistic results as by the Limpel's formula are underlined in the Table).

Arabidopsis thaliana = experiment: growth of Arabidopsis; format: in vivo; conditions: 0.01 μM drench every two days for one month
Protocol: (§1) FIG. 12: Effect of purified HYTLO1 on the growth of Arabidopsis (A), percentage seed germination of cucumber (B) and plantlet development of Lotus japonicus (C). A: Arabidopsis thaliana (Columbia-0: Col-0) seeds were sown in Levington's F2 compost plus sand (JFC Munro, Devon; http://www.jfcmonro.com) and chilled for 2 days at 4° C. Plants were grown under short-day conditions (10 h light) in a controlled environment chamber, at 22° C. during the day and 18° C. at night with 60% relative humidity for 5-6 weeks before transplanting. Ten ml of sterile solutions of HYTLO1 were drenched every two days at concentrations 0.072 μg/ml (0.01 μM) for one month in each pot containing 100 ml of soil and 1 Arabidopsis plant. Untreated plants were used as controls. B: Sterile cucumber seeds were placed on magenta box containing half-strength Murashige and Skoog salt (MS) medium (ICN Biomedicals) containing 1% agar and 1.5% sucrose, adjusted to pH 5.7, and vernalized for 2 days at 4° C. in the absence of light. A sterile solutions of HYTLO1 was added to the substrate at final concentration of 10^−8 M before the solidification of agar. C: The same concentration of HYTLO1 was used in the agarized medium used for the L. japonicus test. […]

Lotus japonicus = experiment: plantlet development of Lotus japonicus; format: in vivo; conditions: 10^−8 M in agarized medium
Protocol: as §1

B. cinerea = experiment: ELISA-based inhibition assay of B. cinerea growth; format: cell-based, Botrytis cinerea; conditions: compared to hydrophobins from T. harzianum strains T22 and M10
From the text: FIG. 4. Antifungal effect of HYTLO1 on B. cinerea growth compared to similar hydrophobins purified from T. harzianum strain T22 and T. harzianum strain M10. Assay protocol is described in Lorito M. et al. 1994. Microbiology UK, 140:623-629. Numbers on the left side indicate micro molar concentration of HYTLO1 used. T22 and M10=hydrophobin from strain T22 and M10, respectively. The inhibition of the pathogen colony is indicated by the reduced intensity of the dark color in the wells compared to control (C).

HYTLO1: about 7 KDa Type II hydrophobin protein from Trichoderma longibrachiatum strain MK1, 71 aa, SEQ ID NO: 1
growth parameters (plant height and length, root length and weight, number of leaves, stem diameter and weight) (tomato plants): increased all of the growth parameters | plant height (cm), percentage increase compared to water control (cucumber; 10^−8M HYTLO1, 10^7 spore/ml, half dose in combinations, SD +− 1.5): 1.8% | Root length (cm), percentage increase compared to water control (cucumber; SD +− 2.0): 8.5% | Plant fresh weight (g), percentage increase compared to water control (cucumber; SD +− 2.8): 4.2% | Plant dry weight (g), percentage increase compared to water control (cucumber; SD +− 3.1): 7.3% | growth promotion effect (Arabidopsis thaliana): confirmed | growth promotion effect (plantlet development) (Lotus japonicus): confirmed | antifungal effect on B. cinerea growth (B. cinerea): strong antifungal effect
